The record followed here is US20230151049A1, “Compounds Useful in HIV Therapy” (priority 2020, published 2023).

Read-outs that look alike come from different tables or passages of the source.

The data set can be described thus: in vivo. The settings on record: for concentration at 1 day / concentration at 7 day / concentration at 14 day / concentration at 21 day / concentration at 28 day / concentration at 35 day / concentration at 42 day / concentration at 49 day / concentration at 56 day / concentration at 63 day / concentration at 70 day / concentration at 77 day / concentration at 84 day: male, Wistar Han, rat, in vivo; for concentration at 1 day: day 1. Summed up: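 Three male Wistar Han rats (200-250 g), not fasted, received a single intramuscular gastrocnemius injection of prodrug suspension at 20 mg/kg EFdA equivalent. Tail-vein blood was taken into NaF/Na2EDTA, mixed 1:1 with 100 mM ammonium acetate pH 4, frozen, and analysed by LC-MS/MS.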

As for `C#C[C@]1(COP(=O)(N[C@@H](Cc2cc(F)cc(F)c2)C(=O)OCCCCCCCCCCCCCCCC)Oc2ccccc2)O[C@@H](n2cnc3c(N)nc(F)nc32)C[C@@H]1O` (single isomer, unassigned) [Example 39A], the “Mean concentration of EFdA” value (day 28, single IM Example 39A 58 mg/kg) is “BQL (BQL = below quantification limit, 0.3 ng/mL for both)”; the “Mean concentration of EFdA” value (day 35, single IM Example 39A 58 mg/kg) is recorded as “BQL (BQL = below quantification limit, 0.3 ng/mL for both)”; the “Mean concentration of EFdA” value (day 42, single IM Example 39A 58 mg/kg) is reported as “BQL (BQL = below quantification limit, 0.3 ng/mL for both)”; the “Mean concentration of EFdA” value (day 49, single IM Example 39A 58 mg/kg) is “BQL (BQL = below quantification limit, 0.3 ng/mL for both)”; the “Mean concentration of EFdA” value (day 56, single IM Example 39A 58 mg/kg) is recorded as “BQL (BQL = below quantification limit, 0.3 ng/mL for both)”; the “Mean concentration of EFdA” value (day 63, single IM Example 39A 58 mg/kg) was “BQL (BQL = below quantification limit, 0.3 ng/mL for both)”. The “Mean concentration of EFdA” value (day 70, single IM Example 39A 58 mg/kg) was “BQL (BQL = below quantification limit, 0.3 ng/mL for both)”; the “Mean concentration of EFdA” value (day 77, single IM Example 39A 58 mg/kg) was “BQL (BQL = below quantification limit, 0.3 ng/mL for both)”; the “Mean concentration of EFdA” value (day 84, single IM Example 39A 58 mg/kg) is “BQL (BQL = below quantification limit, 0.3 ng/mL for both)”. Moreover, the concentration at 1 day (single IM Example 39A 58 mg/kg, read-out: Mean concentration of Example 39A) amounted to 17 ng/mL. Also, the concentration at 7 day (day 7, single IM Example 39A 58 mg/kg, read-out: Mean concentration of Example 39A) worked out at 13.2 ng/mL. Besides, the concentration at 14 day (day 14, single IM Example 39A 58 mg/kg, read-out: Mean concentration of Example 39A) came to 6.43 ng/mL. For the same compound, for the setting “day 21, single IM Example 39A 58 mg/kg, read-out: Mean concentration of Example 39A”, the concentration at 21 day is 8.77 ng/mL. The concentration at 28 day (day 28, single IM Example 39A 58 mg/kg, read-out: Mean concentration of Example 39A) was determined as 7.98 ng/mL. For the same compound, the concentration at 35 day (day 35, single IM Example 39A 58 mg/kg, read-out: Mean concentration of Example 39A) came out at 3.56 ng/mL. Further, the concentration at 42 day (day 42, single IM Example 39A 58 mg/kg, read-out: Mean concentration of Example 39A) is 2.61 ng/mL. Further, the concentration at 49 day (day 49, single IM Example 39A 58 mg/kg, read-out: Mean concentration of Example 39A) stood at 2.45 ng/mL. Further, where the note is “day 56, single IM Example 39A 58 mg/kg, read-out: Mean concentration of Example 39A”, the concentration at 56 day worked out at 3.42 ng/mL. Moreover, the concentration at 63 day (day 63, single IM Example 39A 58 mg/kg, read-out: Mean concentration of Example 39A) was determined as 2.7 ng/mL. The concentration at 70 day (day 70, single IM Example 39A 58 mg/kg, read-out: Mean concentration of Example 39A) was determined as 1.68 ng/mL. For the same compound, the concentration at 77 day (day 77, single IM Example 39A 58 mg/kg, read-out: Mean concentration of Example 39A) came out at 1.18 ng/mL. Besides, the concentration at 84 day (day 84, single IM Example 39A 58 mg/kg, read-out: Mean concentration of Example 39A) is 1.39 ng/mL.

As for `C#C[C@]1(COP(=O)(N[C@@H](Cc2cc(F)cc(F)c2)C(=O)OCCCCCCCCCCCCCCCCCC)Oc2ccccc2)O[C@@H](n2cnc3c(N)nc(F)nc32)C[C@@H]1O` (single isomer, unassigned) [Example 40A], the “Mean concentration of EFdA” value (day 14, single IM Example 40A 60 mg/kg) was “BQL (BQL = below quantification limit, 0.3 ng/ml for both)”; the “Mean concentration of EFdA” value (day 21, single IM Example 40A 60 mg/kg) is “BQL (BQL = below quantification limit, 0.3 ng/ml for both)”; the “Mean concentration of EFdA” value (day 28, single IM Example 40A 60 mg/kg) is reported as “BQL (BQL = below quantification limit, 0.3 ng/ml for both)”; the “Mean concentration of EFdA” value (day 35, single IM Example 40A 60 mg/kg) is “BQL (BQL = below quantification limit, 0.3 ng/ml for both)”; the “Mean concentration of EFdA” value (day 42, single IM Example 40A 60 mg/kg) is listed as “BQL (BQL = below quantification limit, 0.3 ng/ml for both)”; the “Mean concentration of EFdA” value (day 49, single IM Example 40A 60 mg/kg) is reported as “BQL (BQL = below quantification limit, 0.3 ng/ml for both)”. Also, the “Mean concentration of EFdA” value runs as follows: (day 56, single IM Example 40A 60 mg/kg) “BQL (BQL = below quantification limit, 0.3 ng/ml for both)”; (day 63, single IM Example 40A 60 mg/kg) “BQL (BQL = below quantification limit, 0.3 ng/ml for both)”; (day 70, single IM Example 40A 60 mg/kg) “BQL (BQL = below quantification limit, 0.3 ng/ml for both)”; (day 77, single IM Example 40A 60 mg/kg) “BQL (BQL = below quantification limit, 0.3 ng/ml for both)”; (day 84, single IM Example 40A 60 mg/kg) “BQL (BQL = below quantification limit, 0.3 ng/ml for both)”. Also, the concentration at 1 day (single IM Example 40A 60 mg/kg, read-out: Mean concentration of Example 40A) amounted to 59.2 ng/mL. Further, the concentration at 7 day (day 7, single IM Example 40A 60 mg/kg, read-out: Mean concentration of Example 40A) was 22.4 ng/mL. For the same compound, the concentration at 14 day (day 14, single IM Example 40A 60 mg/kg, read-out: Mean concentration of Example 40A) was 11.2 ng/mL. Moreover, the concentration at 21 day (day 21, single IM Example 40A 60 mg/kg, read-out: Mean concentration of Example 40A) is 11.2 ng/mL. Moreover, the concentration at 28 day (day 28, single IM Example 40A 60 mg/kg, read-out: Mean concentration of Example 40A) amounted to 12.7 ng/mL. Moreover, for the setting “day 35, single IM Example 40A 60 mg/kg, read-out: Mean concentration of Example 40A”, the concentration at 35 day is 12.6 ng/mL. In addition, the concentration at 42 day (day 42, single IM Example 40A 60 mg/kg, read-out: Mean concentration of Example 40A) is 13.2 ng/mL. Moreover, the concentration at 49 day (day 49, single IM Example 40A 60 mg/kg, read-out: Mean concentration of Example 40A) was determined as 11.7 ng/mL. Besides, the concentration at 56 day (day 56, single IM Example 40A 60 mg/kg, read-out: Mean concentration of Example 40A) is 14.7 ng/mL. The concentration at 63 day (day 63, single IM Example 40A 60 mg/kg, read-out: Mean concentration of Example 40A) turned out to be 13 ng/mL. The concentration at 70 day (day 70, single IM Example 40A 60 mg/kg, read-out: Mean concentration of Example 40A) amounted to 12.2 ng/mL. Moreover, the concentration at 77 day (day 77, single IM Example 40A 60 mg/kg, read-out: Mean concentration of Example 40A) was found to be 11.7 ng/mL. For the setting “day 84, single IM Example 40A 60 mg/kg, read-out: Mean concentration of Example 40A”, the concentration at 84 day amounted to 10.3 ng/mL.

Take `C#C[C@]1(COP(=O)(N[C@@H](Cc2cc(F)cc(F)c2)C(=O)OCCCCCCCCCCCCCCCCCCCCCC)Oc2ccccc2)O[C@@H](n2cnc3c(N)nc(F)nc32)C[C@@H]1O` (single isomer, unassigned) [Example 42B]: the “Mean concentration of EFdA” value (day 7, single IM Example 42B 64 mg/kg) is reported as “BQL (BQL = below quantification limit, 0.3 ng/mL for both)”; the “Mean concentration of EFdA” value (day 14, single IM Example 42B 64 mg/kg) is listed as “BQL (BQL = below quantification limit, 0.3 ng/mL for both)”; the “Mean concentration of EFdA” value (day 21, single IM Example 42B 64 mg/kg) was “BQL (BQL = below quantification limit, 0.3 ng/mL for both)”; the “Mean concentration of EFdA” value (day 28, single IM Example 42B 64 mg/kg) is given as “BQL (BQL = below quantification limit, 0.3 ng/mL for both)”; the “Mean concentration of EFdA” value (day 35, single IM Example 42B 64 mg/kg) is given as “BQL (BQL = below quantification limit, 0.3 ng/mL for both)”; the “Mean concentration of EFdA” value (day 42, single IM Example 42B 64 mg/kg) was “BQL (BQL = below quantification limit, 0.3 ng/mL for both)”. The “Mean concentration of EFdA” value reads like this: (day 49, single IM Example 42B 64 mg/kg) “BQL (BQL = below quantification limit, 0.3 ng/mL for both)”; (day 56, single IM Example 42B 64 mg/kg) “BQL (BQL = below quantification limit, 0.3 ng/mL for both)”; (day 63, single IM Example 42B 64 mg/kg) “BQL (BQL = below quantification limit, 0.3 ng/mL for both)”; (day 70, single IM Example 42B 64 mg/kg) “BQL (BQL = below quantification limit, 0.3 ng/mL for both)”; (day 77, single IM Example 42B 64 mg/kg) “BQL (BQL = below quantification limit, 0.3 ng/mL for both)”; (day 84, single IM Example 42B 64 mg/kg) “BQL (BQL = below quantification limit, 0.3 ng/mL for both)”.
